The values that follow come from US10399940B2, “Substituted pyrrolidines and methods of use” (AbbVie S.à.r.l., priority 2016, dated 2019).

The target in this assay is T1, F508delCFTR (Homo sapiens, UniProt P13569, DEL508-508).
T1 construct: expressed in transfected cells; host or cells: CFBE41o- (human lung derived epithelial cell line), doxycycline-inducible expression
Kind of assay: Cell Surface Expression-Horse Radish Peroxidase (CSE-HRP) assay. The class given is cell-based. Particulars: CFBE41o-F508delCFTR-HRP cells; for Maximum % activity (with co-corrector): with co-corrector (2 μM); for Maximum % activity (with co-corrector) / Maximum % activity (without co-corrector): normalized to on-plate positive control, highest concentration 20 μM. In a few lines:
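CFBE41o- cells expressed F508delCFTR with HRP in the fourth exofacial loop, induced by 0.5 μg/mL doxycycline for 72 h at 37 °C. Compounds alone or with 2 μM co-corrector ran 18–24 h at 33 °C, 8-point 3-fold from 20 μM. Washed-cell luminol luminescence was normalized to DMSO and positive control, fitted sigmoidally for EC50 (three plates).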

Setting [1] is: test compound without co-corrector, 18-24 hours at 33° C., read-out: EC50 (without co-corrector).
The mark [2] stands for this setting: with co-corrector (2 μM of 3-[(2R,4R)-4-({[1-(2,2-difluoro-1,3-benzodioxol-5-yl)cyclopropyl]carbonyl}amino)-7-methoxy-3,4-dihydro-2H-chromen-2-yl]benzoic acid), read-out: EC50 (with co-corrector).

Where two headings read alike, the source gives them in different places.

T1 sequence (P13569 with tags, fused parts or gaps DEL508-508): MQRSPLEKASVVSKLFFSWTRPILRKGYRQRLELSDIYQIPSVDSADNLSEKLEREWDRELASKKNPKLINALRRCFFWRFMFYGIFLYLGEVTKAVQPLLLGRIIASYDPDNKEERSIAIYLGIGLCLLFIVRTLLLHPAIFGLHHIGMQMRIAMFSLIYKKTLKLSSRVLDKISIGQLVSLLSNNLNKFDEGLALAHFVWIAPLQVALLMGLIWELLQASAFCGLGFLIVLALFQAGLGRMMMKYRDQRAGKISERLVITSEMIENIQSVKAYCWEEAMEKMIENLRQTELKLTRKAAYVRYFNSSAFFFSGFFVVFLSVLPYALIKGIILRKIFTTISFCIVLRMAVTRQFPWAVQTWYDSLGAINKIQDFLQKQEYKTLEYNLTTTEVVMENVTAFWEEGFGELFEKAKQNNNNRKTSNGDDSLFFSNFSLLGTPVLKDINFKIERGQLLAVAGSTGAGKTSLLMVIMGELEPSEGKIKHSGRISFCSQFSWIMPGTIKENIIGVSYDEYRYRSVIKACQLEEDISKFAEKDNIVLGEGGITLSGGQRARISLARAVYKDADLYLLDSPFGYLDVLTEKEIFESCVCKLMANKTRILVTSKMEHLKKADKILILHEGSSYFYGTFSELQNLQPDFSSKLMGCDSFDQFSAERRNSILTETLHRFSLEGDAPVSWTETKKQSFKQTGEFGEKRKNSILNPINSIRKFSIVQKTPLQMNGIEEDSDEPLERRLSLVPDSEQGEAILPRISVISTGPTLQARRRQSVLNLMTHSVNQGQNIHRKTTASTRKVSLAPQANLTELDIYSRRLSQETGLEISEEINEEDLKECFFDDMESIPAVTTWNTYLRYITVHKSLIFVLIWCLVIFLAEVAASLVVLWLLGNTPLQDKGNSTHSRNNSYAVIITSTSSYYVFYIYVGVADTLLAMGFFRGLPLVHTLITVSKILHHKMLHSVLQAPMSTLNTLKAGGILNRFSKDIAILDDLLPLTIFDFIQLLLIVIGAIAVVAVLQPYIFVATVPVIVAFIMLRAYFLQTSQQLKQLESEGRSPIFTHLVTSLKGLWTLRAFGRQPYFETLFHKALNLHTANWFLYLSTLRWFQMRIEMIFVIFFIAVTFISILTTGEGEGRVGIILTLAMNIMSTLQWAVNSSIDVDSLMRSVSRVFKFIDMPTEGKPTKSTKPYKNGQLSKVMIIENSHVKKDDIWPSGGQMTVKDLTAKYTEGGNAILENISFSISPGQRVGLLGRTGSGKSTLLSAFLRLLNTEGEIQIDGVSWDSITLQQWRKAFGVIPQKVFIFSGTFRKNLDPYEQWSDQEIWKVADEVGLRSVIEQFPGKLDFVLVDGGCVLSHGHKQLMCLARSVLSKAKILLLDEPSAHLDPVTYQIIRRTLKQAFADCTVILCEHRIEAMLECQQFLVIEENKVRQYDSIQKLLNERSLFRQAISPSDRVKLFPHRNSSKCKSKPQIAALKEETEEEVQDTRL

The EC50 is the concentration giving half of the maximal effect. Turning to `COc1ccc(C(F)(F)F)cc1CO[C@H]1[C@H](C(C)(C)C)[C@@H](C(=O)O)N(C(=O)[C@@H]2CCC[C@@H](OC)C2)[C@H]1c1ccccc1` [Example 31, (2S,3R,4S,5S)-3-tert-butyl-1-[(1R,3R)-3-methoxycyclohexane-1-carbonyl]-4-{[2-methoxy-5-(trifluoromethyl)phenyl]methoxy}-5-phenylpyrrolidine-2-carboxylic acid], the “Maximum % activity (with co-corrector)” value is listed as “+++ (≥350)” and the “Maximum % activity (without co-corrector)” value is “+++ (≥200)”. For the same molecule, under setting [1], the EC50 lay in the range of 1 to 10 µM. Further, the EC50 under setting [2] is under 1 µM.

Turning to `COc1cc(C(F)(F)F)ccc1CO[C@H]1[C@H](C(C)(C)C)[C@@H](C(=O)O)N(C(=O)[C@H]2CCC[C@H](OC)C2)[C@H]1c1ccccc1` [Example 32, (2S,3R,4S,5S)-3-tert-butyl-1-[(1S,3S)-3-methoxycyclohexane-1-carbonyl]-4-{[2-methoxy-4-(trifluoromethyl)phenyl]methoxy}-5-phenylpyrrolidine-2-carboxylic acid], the “Maximum % activity (with co-corrector)” value was “+++ (≥350)” and the “Maximum % activity (without co-corrector)” value is given as “+ (<100)”. Under setting [1], the EC50 was 1 to 10 µM. Further, the EC50 under setting [2] was in the range of 1 to 10 µM.

Consider `COc1cc(C(F)(F)F)ccc1CO[C@H]1[C@H](C(C)(C)C)[C@@H](C(=O)O)N(C(=O)[C@@H]2CCC[C@@H](OC)C2)[C@H]1c1ccccc1` [Example 33, (2S,3R,4S,5S)-3-tert-butyl-1-[(1R,3R)-3-methoxycyclohexane-1-carbonyl]-4-{[2-methoxy-4-(trifluoromethyl)phenyl]methoxy}-5-phenylpyrrolidine-2-carboxylic acid], for which the “Maximum % activity (with co-corrector)” value is recorded as “+++ (≥350)”; the “Maximum % activity (without co-corrector)” value was “++ (≥100 and <200)”. Moreover, the EC50 under setting [1] fell in the range of 1 to 10 µM. For the same molecule, the half-maximal effective concentration (EC50) under setting [2] is 1 to 10 µM.

For the molecule `COc1ccc(Br)cc1CO[C@H]1[C@H](C(C)(C)C)[C@@H](C(=O)O)N(C(=O)OC(C)C)[C@H]1c1ccccc1` [Example 36, (2S,3R,4S,5S)-4-[(5-bromo-2-methoxyphenyl)methoxy]-3-tert-butyl-5-phenyl-1-{[(propan-2-yl)oxy]carbonyl}pyrrolidine-2-carboxylic acid], the “Maximum % activity (with co-corrector)” value is recorded as “+++ (≥350)”; the “Maximum % activity (without co-corrector)” value is “++ (≥100 and <200)”. In addition, the EC50 under setting [1] lay in the range of 1 to 10 µM. In addition, the EC50 under setting [2] was 1 to 10 µM.

Consider `COc1ccc(Br)cc1CO[C@H]1[C@H](C(C)(C)C)[C@@H](C(=O)O)N(C(=O)[C@@H]2CCC[C@@H](OC)C2)[C@H]1c1ccccc1` [Example 37, (2S,3R,4S,5S)-4-[(5-bromo-2-methoxyphenyl)methoxy]-3-tert-butyl-1-[(1R,3R)-3-methoxycyclohexane-1-carbonyl]-5-phenylpyrrolidine-2-carboxylic acid], for which the “Maximum % activity (with co-corrector)” value is reported as “+++ (≥350)” and the “Maximum % activity (without co-corrector)” value is “+++ (≥200)”. Besides, the EC50 under setting [1] was 1 to 10 µM. The EC50 under setting [2] is 1 to 10 µM.

With `COc1ccc(-c2ccccc2)cc1CO[C@H]1[C@H](C(C)(C)C)[C@@H](C(=O)O)N(C(=O)OC(C)C)[C@H]1c1ccccc1` [Example 38, (2S,3R,4S,5S)-3-tert-butyl-4-[(4-methoxy[1,1′-biphenyl]-3-yl)methoxy]-5-phenyl-1-{[(propan-2-yl)oxy]carbonyl}pyrrolidine-2-carboxylic acid], the “Maximum % activity (with co-corrector)” value is “+++ (≥350)”; the “Maximum % activity (without co-corrector)” value is “++ (≥100 and <200)”. For the same molecule, the EC50 under setting [1] lay within 1 to 10 µM. For the same molecule, the EC50 under setting [2] fell in the range of 1 to 10 µM.

As for `COc1ccc(-c2ccccc2)cc1CO[C@H]1[C@H](C(C)(C)C)[C@@H](C(=O)O)N(C(=O)[C@@H]2CCC[C@@H](OC)C2)[C@H]1c1ccccc1` [Example 39, (2S,3R,4S,5S)-3-tert-butyl-4-[(4-methoxy[1,1′-biphenyl]-3-yl)methoxy]-1-[(1R,3R)-3-methoxycyclohexane-1-carbonyl]-5-phenylpyrrolidine-2-carboxylic acid], the “Maximum % activity (with co-corrector)” value was “+++ (≥350)” and the “Maximum % activity (without co-corrector)” value is recorded as “+++ (≥200)”. Moreover, the EC50 under setting [1] is 1 to 10 µM. For the same molecule, under setting [2], the EC50 lay within 1 to 10 µM.

In the case of `COc1ncc(Br)cc1CO[C@H]1[C@H](C(C)(C)C)[C@@H](C(=O)O)N(C(=O)OC(C)C)[C@H]1c1ccccc1` [Example 40, (2S,3R,4S,5S)-4-[(5-bromo-2-methoxypyridin-3-yl)methoxy]-3-tert-butyl-5-phenyl-1-{[(propan-2-yl)oxy]carbonyl}pyrrolidine-2-carboxylic acid], the “Maximum % activity (with co-corrector)” value is listed as “+++ (≥350)”; the “Maximum % activity (without co-corrector)” value was “++ (≥100 and <200)”. The EC50 under setting [1] is 1 to 10 µM. Besides, under setting [2], the EC50 was in the range of 1 to 10 µM.

`COc1ncc(C(F)(F)F)cc1CO[C@H]1[C@H](C(C)(C)C)[C@@H](C(=O)O)N(C(=O)C2CCCCC2)[C@H]1c1ccccc1` [Example 41, (2S,3R,4S,5S)-3-tert-butyl-1-(cyclohexanecarbonyl)-4-{[2-methoxy-5-(trifluoromethyl)pyridin-3-yl]methoxy}-5-phenylpyrrolidine-2-carboxylic acid]: the “Maximum % activity (with co-corrector)” value was “+++ (≥350)”; the “Maximum % activity (without co-corrector)” value was “++ (≥100 and <200)”. Moreover, the EC50 under setting [1] is under 1 µM. Further, under setting [2], the EC50 is under 1 µM.

For the molecule `COc1ncc(-c2ccccc2)cc1CO[C@H]1[C@H](C(C)(C)C)[C@@H](C(=O)O)N(C(=O)OC(C)C)[C@H]1c1ccccc1` [Example 42, (2S,3R,4S,5S)-3-tert-butyl-4-[(2-methoxy-5-phenylpyridin-3-yl)methoxy]-5-phenyl-1-{[(propan-2-yl)oxy]carbonyl}pyrrolidine-2-carboxylic acid], the “Maximum % activity (with co-corrector)” value is “+++ (≥350)” and the “Maximum % activity (without co-corrector)” value is “+ (<100)”. Further, the EC50 under setting [1] lay within 1 to 10 µM. Besides, the EC50 under setting [2] lay in the range of 1 to 10 µM.

On to `COc1ncc(C2CCCCC2)cc1CO[C@H]1[C@H](C(C)(C)C)[C@@H](C(=O)O)N(C(=O)OC(C)C)[C@H]1c1ccccc1` [Example 43, (2S,3R,4S,5S)-3-tert-butyl-4-[(5-cyclohexyl-2-methoxypyridin-3-yl)methoxy]-5-phenyl-1-{[(propan-2-yl)oxy]carbonyl}pyrrolidine-2-carboxylic acid], for which the “Maximum % activity (with co-corrector)” value was “+++ (≥350)” and the “Maximum % activity (without co-corrector)” value is recorded as “+ (<100)”. Besides, the EC50 under setting [1] lay within 1 to 10 µM. For the same molecule, the EC50 under setting [2] lay within 1 to 10 µM.

In the case of `COc1ncc(C2CCCC2)cc1CO[C@H]1[C@H](C(C)(C)C)[C@@H](C(=O)O)N(C(=O)OC(C)C)[C@H]1c1ccccc1` [Example 44, (2S,3R,4S,5S)-3-tert-butyl-4-[(5-cyclopentyl-2-methoxypyridin-3-yl)methoxy]-5-phenyl-1-{[(propan-2-yl)oxy]carbonyl}pyrrolidine-2-carboxylic acid], the “Maximum % activity (with co-corrector)” value is on record as “+++ (≥350)” and the “Maximum % activity (without co-corrector)” value was “+ (<100)”. Besides, the EC50 under setting [1] is 1 to 10 µM. Further, under setting [2], the EC50 fell in the range of 1 to 10 µM.

Consider `COc1ncc(C2CCC2)cc1CO[C@H]1[C@H](C(C)(C)C)[C@@H](C(=O)O)N(C(=O)OC(C)C)[C@H]1c1ccccc1` [Example 45, (2S,3R,4S,5S)-3-tert-butyl-4-[(5-cyclobutyl-2-methoxypyridin-3-yl)methoxy]-5-phenyl-1-{[(propan-2-yl)oxy]carbonyl}pyrrolidine-2-carboxylic acid], for which the “Maximum % activity (with co-corrector)” value is “+++ (≥350)”; the “Maximum % activity (without co-corrector)” value was “++ (≥100 and <200)”. In addition, the EC50 under setting [1] fell in the range of 1 to 10 µM. Further, under setting [2], the EC50 was 1 to 10 µM.

Take `COc1ccc(C(C)(C)C)cc1CO[C@H]1[C@H](C(C)(C)C)[C@@H](C(=O)O)N(C(=O)[C@@H]2CCC[C@@H](OC)C2)[C@H]1c1ccccc1` [Example 46, (2S,3R,4S,5S)-3-tert-butyl-4-[(5-tert-butyl-2-methoxyphenyl)methoxy]-1-[(1R,3R)-3-methoxycyclohexane-1-carbonyl]-5-phenylpyrrolidine-2-carboxylic acid]: the “Maximum % activity (with co-corrector)” value is on record as “+++ (≥350)” and the “Maximum % activity (without co-corrector)” value is “+++ (≥200)”. In addition, the EC50 under setting [1] is under 1 µM. For the same molecule, the EC50 under setting [2] was under 1 µM.

As for `COc1ccc(C(C)(C)C)cc1CO[C@H]1[C@H](C(C)(C)C)[C@@H](C(=O)O)N(C(=O)OC(C)C)[C@H]1c1ccccc1` [Example 47, (2S,3R,4S,5S)-3-tert-butyl-4-[(5-tert-butyl-2-methoxyphenyl)methoxy]-5-phenyl-1-{[(propan-2-yl)oxy]carbonyl}pyrrolidine-2-carboxylic acid], the “Maximum % activity (with co-corrector)” value was “+++ (≥350)” and the “Maximum % activity (without co-corrector)” value is reported as “+++ (≥200)”. Further, the EC50 under setting [1] fell in the range of 1 to 10 µM. Moreover, under setting [2], the EC50 fell in the range of 1 to 10 µM.

For `COc1ncc(C(F)(F)F)cc1CO[C@H]1[C@H](C(C)(C)C)[C@@H](C(=O)O)N(C(=O)C2CCCCC2)[C@H]1c1ccccc1F` [Example 48, (2S,3R,4S,5S)-3-tert-butyl-1-(cyclohexanecarbonyl)-5-(2-fluorophenyl)-4-{[2-methoxy-5-(trifluoromethyl)pyridin-3-yl]methoxy}pyrrolidine-2-carboxylic acid], the “Maximum % activity (with co-corrector)” value is “+++ (≥350)”; the “Maximum % activity (without co-corrector)” value is “++ (≥100 and <200)”. Besides, under setting [1], the EC50 lay in the range of 1 to 10 µM. Moreover, the EC50 under setting [2] lay within 1 to 10 µM.
